From patent publication US20130041036A1, “FERULIC ACID AS FEED SUPPLEMENT IN BEEF CATTLE TO PROMOTE ANIMAL GROWTH AND IMPROVE THE MEAT QUALITY OF THE CARCASS AND THE MEAT” (BIOKAB, S.A. DE C.V., priority 2011, published 2013)
“Also recorded” adds a separate entry of the source. Marks after values point to notes of the source that are not given here.

How the values were obtained:
[1] = system: Longissimus dorsi muscle; assay: Chemical and physicochemical quality of Longissimus dorsi muscle from supplemented cattle; type: in vivo, beef cattle of commercial breeds; conditions: for SF: shear force: Warner-Bratzler; for L* value: fresh meat brightness; for a* value: fresh meat redness; for b* value: fresh meat yellowness; for pH: meat
Experimental: (§1) Subsequent to the carcass classification the rib eye cut (LD muscle) was obtained of the left side of each selected carcass. Meat samples were identified, vacuum packed, frozen at -18° C., and then shipped under refrigeration by air courier to the Centro de Investigación en Alimentacion y Desarrollo A.C. (CIAD) facilities at Hermosillo, Sonora, to perform quality analysis of the meat: Chemical analysis (moisture and fat content), physicochemical (objective color parameters L*, which measures the brightness of the meat, a* value, which measures the redness, and b* value which measures the tendency towards yellowness, and hue-angle, Warner-Bratzler shear force, water retention capacity and pH). A sensory test was done by a trained panel consisting of 10 members using a descriptive test with a semi-structured 10 cm scale, where zero indicates a […] of the attribute and a 10 indicates a favorable rating (e.g. tenderness, zero indicates extremely hard and 10 extremely tender). The sensory attributes that were measured: total color and overall appearance of raw meat, flavor, odor, color, tenderness, fat perception, juiciness, and perception of connective tissue in cooked meat. […] To measure cooking loss, the meat sample was weighed before and immediately after reaching the final cooking temperature, which was expressed in percentage. All data for response variables of the quality of carcass and meat were analyzed under a completely randomized design, with a one-way ANOVA, taking the experimental treatments as a fixed effect. For carcass BFT and REA characteristics the hot carcass weight was used as a covariable. Regarding the sensory attributes, the model also included the effect of panelist as the repeated measure. The variables of the shelf life study were analyzed as a completely randomized design with factorial arrangement, factor A being the treatment with 4 levels, and factor B, the storage time with 5 levels. When there were statistical differences (P<0.05) between treatments, average comparisons were performed by the multiple range test of Tukey.

[2] = system: beef cattle; assay: Feedlot performance and carcass quality of beef cattle; type: in vivo, beef cattle of commercial breeds; conditions: for CCW: cold carcass weight: carcass 24 hr at 0° C.; for PH45: pH at 45 min postmortem: Longissimus dorsi
Source text: In this study, all animals received the same prophylactic management, and all were subsequently assigned randomly to one of the following four treatments (25 animals per treatment, divided into pens of 5 experimental units per pen):
Definition of the 4 Treatments
Treatment 1 (Control): control animals (receiving only the basal diet without supplementation of the additive).
Treatment 2 (Ferulic Acid for 30 days=FA30): Animals receiving the basal diet supplemented with 240 ppm of ferulic acid during the last 30 days of the fattening period.
Treatment 3 (Ferulic Acid for 60 days=FA60): Animals receiving the basal diet supplemented with 240 ppm of ferulic acid during the last 60 days of the fattening period.
Treatment 4 (Zilmax commercial Zilpaterp; =ZX): Animals receiving the basal diet and supplemented with 6 ppm hydrochloride zilpaterol during the last 30 days of the fattening period.
During the experimental phase, all animals received a feeding ration consisting of 20% fodder and 80% concentrate. The crop was corn stover, while the concentrate consisted of different proportions of rolled corn grain, soybean meal, canola meal, distillery grains, and molasses. The ration was provided twice a day, and there was free access to the food and drinking water.
Initial and final live weight was recorded in the productive performance trial. The performance test lasted 60 days. Daily feed intake was evaluated, weight was recorded at the beginning and end of experimental period, in order to estimate the average daily gain and feed conversion.
Before concluding the performance test, 2 animals were randomly selected per pen (10 per treatment) for humanitarian slaughter. The animals were sacrificed following the standard procedures of the official Mexican standards in the municipal slaughterhouse of Guadalajara, Jalisco. Animal live weight was recorded before slaughter.
During the slaughter process, the pH of the carcass at 45 min postmortem in the Longissimus dorsi muscle (LD) was measured and the weight of the hot carcass was recorded. The carcasses were refrigerated at 0° C. for 24 hr. After this, the final pH was measured and cold carcass weight recorded, and the classification of carcasses was carried out, recording the Rib eye area (REA) in square inches, back fat thickness (BFT) in mm, and the marbling in the 12th intercostal space of the LD; the skeletal maturity and conformation of the carcass was also evaluated (10 carcasses per treatment). The assessment of quality of the carcass was made following the procedures described by the US Department of Agriculture (USDA, 2000).
(§2) All data for response variables of the quality of carcass and meat were analyzed under a completely randomized design, with a one-way ANOVA, taking the experimental treatments as a fixed effect. For carcass BFT and REA characteristics the hot carcass weight was used as a covariable. Regarding the sensory attributes, the model also included the effect of panelist as the repeated measure. The variables of the shelf life study were analyzed as a completely randomized design with factorial arrangement, factor A being the treatment with 4 levels, and factor B, the storage time with 5 levels. When there were statistical differences (P<0.05) between treatments, average comparisons were performed by the multiple range test of Tukey. All data was processed in the NCSS statistical package (NCSS, 2001).

[3] = system: Longissimus dorsi muscle; assay: Shelf life study of refrigerated meat (colour, TBARS); type: in vivo, beef cattle of commercial breeds; conditions: for TBA values (lipid oxidation) during shelf life: FIG. 2
Experimental: In order to estimate the antioxidant effect of ferulic acid, 5 chops of the meat samples were taken (5 experimental units) of the respective treatments, which were packed with traditional packaging (film wrapped) and subjected to a refrigeration process from 4 and 5° C. for 10 days in a room equipped for this purpose. During the shelf life (Day 1, 3, 5, 7 and 9 of storage) the objective color parameters mentioned above, as well as determination of substances reactive to thiobarbituric acid (TBARS) were evaluated according to the methodology described by Pfalzgraf et al. (1995). TBA values were expressed as substances reactive to 2-thiobarbituric acid (TBARS) in mg malonaldehyde/kg sample.
as §2

[4] = system: Longissimus dorsi muscle; assay: Sensory test of Longissimus dorsi meat by trained panel; type: in vivo, beef cattle of commercial breeds; conditions: for Tenderness / Connective tissue perception / Fat perception / Flavor intensity / Juiciness / Odor intensity: cooked meat; for Tenderness: 10 cm scale, zero extremely hard, 10 extremely tender; for Connective tissue perception / Fat perception / Flavor intensity / Juiciness / Odor intensity / Appearance / Overall Color: semi-structured 10 cm scale; for Appearance / Overall Color: raw meat
Experimental: as §1

[5] = system: pigs; conditions: pigs supplemented with 50 ppm of ferulic acid; cited from earlier work
[6] = system: feedlot steers; conditions: steers supplemented with ractopamine compared to the control; cited from earlier work
[7] = 240 ppm ferulic acid (FA30) or 6 ppm zilpaterol hydrochloride (ZX), last 30 days of fattening
[8] = 240 ppm ferulic acid, last 60 days of fattening (FA60)
[9] = 240 ppm ferulic acid (FA30) or 6 ppm zilpaterol hydrochloride (ZX) in diet, last 30 days of fattening
[10] = 240 ppm ferulic acid in diet, last 60 days of fattening (FA60)
[11] = 240 ppm ferulic acid, last 60 days (FA60)
[12] = FA30 240 ppm or ZX 6 ppm, last 30 days of fattening
[13] = FA30 240 ppm or ZX 6 ppm, last 30 days of fattening, listed as FA30

SMILES: COc1cc(/C=C/C(=O)O)ccc1O [ferulic acid, trans-4-hydroxy-3-methoxy cinnamic acid]
- Cooking loss [1, 7]: 17.65^ab %
- Fat content [1, 7]: 2.13%
- Hue angle [1, 7]: 36.79
- Moisture [1, 7]: 73.10%
- WHC: water holding capacity [1, 7]: 25.73%
- Cooking loss [1, 8]: 19.65^b %
- Fat content [1, 8]: 2.52%
- Hue angle [1, 8]: 37.13
- Moisture [1, 8]: 73.41%
- WHC: water holding capacity [1, 8]: 25.44%
- SF: shear force [1, 7]: values significantly lower
- SF: shear force ([1]; 240 ppm ferulic acid (FA30) or 6 ppm zilpaterol hydrochloride (ZX), last 30 days of fattening, listed as FA30): 7.94^a kg F
- SF: shear force [1, 8]: 8.32^ab kg F
- L* value [1, 7]: 36.66
- L* value [1, 8]: 35.74
- a* value [1, 7]: 16.86
- a* value [1, 8]: 17.55
- b* value [1, 7]: 12.53
- b* value [1, 8]: 13.22
- pH [1, 7]: 5.54
- pH [1, 8]: 5.57
- FW: final weight [2, 9]: 553.5 kg
- HCW: hot carcass weight [2, 9]: 336.42 kg
- CCW: cold carcass weight [2, 9]: 331.13 kg
- BFT: back fat thickness [2, 7]: 4.29 mm
- PH24: pH at 24 h postmortem [2, 7]: 5.63
- REA: rib eye area [2, 7]: 14.54 Inch^2
- CY: carcass yield [2, 10]: 59.85^ab %
- FW: final weight [2, 10]: 551.9 kg
- HCW: hot carcass weight [2, 10]: 330.42 kg
- CCW: cold carcass weight [2, 10]: 325.42 kg
- BFT: back fat thickness [2, 8]: 4.38 mm
- PH24: pH at 24 h postmortem [2, 8]: 5.61
- REA: rib eye area [2, 8]: 14.21 Inch^2
- PH45: pH at 45 min postmortem [2, 7]: 6.54^b
- PH45: pH at 45 min postmortem [2, 8]: 6.33^ab
- color parameter a* (redness) during shelf life ([3]; film wrapped meat at 4 and 5° C., days 1-9, 240 ppm ferulic acid last 30 days of fattening, FIG. 1, listed as FA30): delayed effect of the deterioration of the red color of the meat; also recorded: maintained the highest values of a* until day 7 of storage
- TBA values (lipid oxidation) during shelf life ([3]; film wrapped meat at 4 and 5° C., days 1-9, 240 ppm ferulic acid last 30 days of fattening): lower; also recorded: smaller increases in TBA values
- TBA values (lipid oxidation) during shelf life ([3]; film wrapped meat at 4 and 5° C., days 1-9, 240 ppm ferulic acid last 60 days of fattening): faster oxidation
- photographic pattern of changes of meat color during shelf life ([3]; refrigerated storage, 240 ppm ferulic acid last 30 days of fattening, FIG. 3): maintain the red meat color with less changes until day 7 of storage
- Tenderness [4, 11]: 7.54^ab
- Tenderness [4, 12]: more tender
- Tenderness [4, 13]: 7.68^b
- Connective tissue perception [4, 11]: 1.50
- Fat perception [4, 11]: 3.62
- Flavor intensity [4, 11]: 7.32^ab
- Juiciness [4, 11]: 6.76^ab
- Odor intensity [4, 11]: 7.90
- Connective tissue perception [4, 12]: 1.57
- Fat perception [4, 12]: 3.22
- Flavor intensity [4, 12]: better flavored
- Juiciness [4, 12]: juicier
- Odor intensity [4, 12]: 8.05
- Flavor intensity [4, 13]: 7.73^b
- Juiciness [4, 13]: 7.09^b
- Appearance [4, 11]: 7.11
- Overall Color [4, 11]: 7.65
- Appearance [4, 12]: 7.41
- Overall Color [4, 12]: 7.51
- thickness of the dorsal fat [5]: decrease in the thickness of the dorsal fat

SMILES: CC(C)N[C@@H]1CCn2c(=O)[nH]c3cccc(c32)[C@H]1O.Cl [ZX, zilpaterol hydrochloride, reference compound]
- Cooking loss [1, 7]: 19.20^b %
- Fat content [1, 7]: 2.36%
- Hue angle [1, 7]: 36.05
- Moisture [1, 7]: 73.02%
- WHC: water holding capacity [1, 7]: 25.13%
- SF: shear force [1, 7]: 10.37^b kg F
- L* value [1, 7]: 35.34
- a* value [1, 7]: 16.39
- b* value [1, 7]: 11.95
- pH [1, 7]: 5.57
- CY: carcass yield [2, 9]: 61.53^b %
- FW: final weight [2, 9]: 579.4 kg
- HCW: hot carcass weight [2, 9]: 356.34 kg
- CCW: cold carcass weight [2, 9]: 350.62 kg
- BFT: back fat thickness [2, 7]: 3.05 mm
- PH24: pH at 24 h postmortem [2, 7]: 5.63
- REA: rib eye area [2, 7]: 15.41 Inch^2
- PH45: pH at 45 min postmortem [2, 7]: 6.17^a
- Tenderness [4, 12]: 6.85^a
- Connective tissue perception [4, 12]: 1.42
- Fat perception [4, 12]: 3.34
- Flavor intensity [4, 12]: 6.56^a
- Juiciness [4, 12]: 6.00^a
- Odor intensity [4, 12]: 7.89
- Appearance [4, 12]: 7.17
- Overall Color [4, 12]: 7.41

SMILES: CC(CCc1ccc(O)cc1)NCC(O)c1ccc(O)cc1 (stereo not drawn) [ractopamine]
- shear force of meat [6]: significant increase in the shear force
